Reference: article PMC5775428, “Towards an experimental classification system for membrane active peptides” (Scientific Reports, 2018)
Where two headings read alike, the source gives them in different places.

Columns and labels:
Bacillus cereus = system: Bacillus cereus
Procedure: (§1) Antimicrobial activity was tested against three categories of human and plant pathogenic microorganisms: Gram-positive (Bacillus subtilis, Bacillus cereus, Staphylococcus aureus), Gram-negative (Escherichia coli, Pseudomonas aeruginosa, Erwinia carotovora, Pseudomonas syringae pv. tabaci, Xanthomonas campestris pv. citri) and yeasts (Candida albicans, Cryptococcus neoformans), as previously reported. […] The full list of peptide MICs was published in an accompanying paper, and is available in the current publication as supplementary dataset (Supplementary dataset 01).
(§2) The determination of the minimum inhibitory concentration (MIC) of peptides was performed as described in “Encrypted Antimicrobial Peptides from Plant Proteins”[7]. Briefly, MICs were determined following protocols M7-A10 and M27-A3 from Clinical & Laboratory Standards Institute (CLSI) for bacteria and yeasts, respectively. Different concentrations of IAPs (0.5 to 256 μM) were tested against several microorganisms in a final volume of 100 µL. Three biological repetitions, with 2 technical replicates each, were performed for each test, on polystyrene flat-bottom 96 wells microplates. The minimum inhibitory concentration (MIC) was defined as the concentration at which no cells were detected when visualized by optical microscopy. Please refer to the literature[7] for further details of the microbiological assays.

Escherichia coli = system: Escherichia coli
Procedure: as §1, §2

Staphylococcus aureus = conditions: Staphylococcus aureus; for Minimum inhibitory concentration, Average: average of triplicates
Procedure: as §1, §2

Pseudomonas aeruginosa = system: Pseudomonas aeruginosa
Procedure: as §1, §2

Candida albicans = system: Candida albicans
Procedure: as §1, §2

Bacillus subtilis = conditions: Bacillus subtilis; for Minimum inhibitory concentration, Average: average of triplicates
Procedure: as §1, §2

Cryptococcus neoformans = conditions: Cryptococcus neoformans; for Minimum inhibitory concentration, Average: average of triplicates
Procedure: as §1, §2

Erwinia carotovora = system: Erwinia carotovora
Procedure: as §1, §2

Xanthomonas campestris = conditions: for Minimum inhibitory concentration, Average: average of triplicates
Procedure: as §1, §2

[1] = system: Pseudomonas syringae pv. tabaci
Procedure: as §1, §2

In the case of GKILKYLLYLLRKYANLIIR [Tc02], the Minimum inhibitory concentration (Bacillus cereus; Bacillus cereus, CLSI M7-A10, triplicate 1) is reported as 16 µM, the “Minimum inhibitory concentration, Average” value (Bacillus cereus; Bacillus cereus, average of triplicates) is reported as 13.3 µM and the Minimum inhibitory concentration (Bacillus cereus; Bacillus cereus, triplicate 2) is reported as 16 µM. For the same sequence, the Minimum inhibitory concentration (Bacillus cereus; Bacillus cereus, triplicate 3) was 8 µM, the Minimum inhibitory concentration (Escherichia coli; Escherichia coli, CLSI M7-A10, triplicate 1) was 8 µM and the “Minimum inhibitory concentration, Average” value (Escherichia coli; Escherichia coli, average of triplicates) was 10.7 µM. The Minimum inhibitory concentration (Escherichia coli; Escherichia coli, triplicate 2) was 8 µM, the Minimum inhibitory concentration (Escherichia coli; Escherichia coli, triplicate 3) was 16 µM and the Minimum inhibitory concentration (Staphylococcus aureus; CLSI M7-A10, triplicate 1) was 8 µM. For the same sequence, the “Minimum inhibitory concentration, Average” value (Staphylococcus aureus) was 8.0 µM, the Minimum inhibitory concentration (Staphylococcus aureus; triplicate 2) was 8 µM and the Minimum inhibitory concentration (Staphylococcus aureus; triplicate 3) was 8 µM. For the same sequence, the Minimum inhibitory concentration (Pseudomonas aeruginosa; Pseudomonas aeruginosa, CLSI M7-A10, triplicate 1) was 16 µM, the “Minimum inhibitory concentration, Average” value (Pseudomonas aeruginosa; Pseudomonas aeruginosa, average of triplicates) was 16.0 µM and the Minimum inhibitory concentration (Pseudomonas aeruginosa; Pseudomonas aeruginosa, triplicate 2) was 16 µM. For the same sequence, the Minimum inhibitory concentration (Pseudomonas aeruginosa; Pseudomonas aeruginosa, triplicate 3) was 16 µM, the Minimum inhibitory concentration (Candida albicans; Candida albicans, CLSI M27-A3, 0.5 to 256 μM tested, triplicate 1, also published in ref 7) was 1 µM and the “Minimum inhibitory concentration, Average” value (Candida albicans; Candida albicans, average of triplicates) was 1.0 µM. The Minimum inhibitory concentration (Candida albicans; Candida albicans, triplicate 2) was 1 µM, the Minimum inhibitory concentration (Candida albicans; Candida albicans, triplicate 3) was 1 µM and the Minimum inhibitory concentration (Bacillus subtilis; CLSI M7-A10, triplicate 1) was 4 µM. The “Minimum inhibitory concentration, Average” value (Bacillus subtilis) was 4.0 µM, the Minimum inhibitory concentration (Bacillus subtilis; triplicate 2) was 4 µM and the Minimum inhibitory concentration (Bacillus subtilis; triplicate 3) was 4 µM. The Minimum inhibitory concentration (Cryptococcus neoformans; CLSI M27-A3, triplicate 1) was 1 µM, the “Minimum inhibitory concentration, Average” value (Cryptococcus neoformans) was 1.0 µM and the Minimum inhibitory concentration (Cryptococcus neoformans; triplicate 2) was 1 µM. The Minimum inhibitory concentration (Cryptococcus neoformans; triplicate 3) was 1 µM, the Minimum inhibitory concentration (Erwinia carotovora; Erwinia carotovora, CLSI M7-A10, triplicate 1) was 16 µM and the “Minimum inhibitory concentration, Average” value (Erwinia carotovora; Erwinia carotovora, average of triplicates) was 16.0 µM. For the same sequence, the Minimum inhibitory concentration (Erwinia carotovora; Erwinia carotovora, triplicate 2) was 16 µM, the Minimum inhibitory concentration (Erwinia carotovora; Erwinia carotovora, triplicate 3) was 16 µM and the Minimum inhibitory concentration (Xanthomonas campestris; CLSI M7-A10, triplicate 1) was 16 µM. The “Minimum inhibitory concentration, Average” value (Xanthomonas campestris) was 16.0 µM, the Minimum inhibitory concentration (Xanthomonas campestris; triplicate 2) was 16 µM and the Minimum inhibitory concentration (Xanthomonas campestris; triplicate 3) was 16 µM. The Minimum inhibitory concentration ([1]; Pseudomonas syringae pv. tabaci, CLSI M7-A10, triplicate 1) was 4 µM, the “Minimum inhibitory concentration, Average” value ([1]; Pseudomonas syringae pv. tabaci, average of triplicates) was 4.0 µM and the Minimum inhibitory concentration ([1]; Pseudomonas syringae pv. tabaci, triplicate 2) was 4 µM. The Minimum inhibitory concentration ([1]; Pseudomonas syringae pv. tabaci, triplicate 3) was 4 µM.
GLYNFIKVLGRTVFGLYKQF [At04] was tested, and the Minimum inhibitory concentration (Bacillus cereus) was 512 µM, the “Minimum inhibitory concentration, Average” value (Bacillus cereus) was 512.0 µM and the Minimum inhibitory concentration (Escherichia coli) was 512 µM. The “Minimum inhibitory concentration, Average” value (Escherichia coli) was 512.0 µM, the Minimum inhibitory concentration (Staphylococcus aureus; CLSI M7-A10, triplicate 1) was 16 µM and the “Minimum inhibitory concentration, Average” value (Staphylococcus aureus) was 16.0 µM. It also gave a Minimum inhibitory concentration (Staphylococcus aureus; triplicate 2) of 16 µM, a Minimum inhibitory concentration (Staphylococcus aureus; triplicate 3) of 16 µM and a Minimum inhibitory concentration (Pseudomonas aeruginosa) of 512 µM. For the same sequence, the “Minimum inhibitory concentration, Average” value (Pseudomonas aeruginosa) was 512.0 µM, the Minimum inhibitory concentration (Candida albicans) was 512 µM and the “Minimum inhibitory concentration, Average” value (Candida albicans) was 512.0 µM. For the same sequence, the Minimum inhibitory concentration (Bacillus subtilis; CLSI M7-A10, triplicate 1) was 256 µM, the “Minimum inhibitory concentration, Average” value (Bacillus subtilis) was 256.0 µM and the Minimum inhibitory concentration (Bacillus subtilis; triplicate 2) was 256 µM. For the same sequence, the Minimum inhibitory concentration (Bacillus subtilis; triplicate 3) was 256 µM, the Minimum inhibitory concentration (Cryptococcus neoformans; CLSI M27-A3, triplicate 1) was 64 µM and the “Minimum inhibitory concentration, Average” value (Cryptococcus neoformans) was 64.0 µM. For the same sequence, the Minimum inhibitory concentration (Cryptococcus neoformans; triplicate 2) was 64 µM, the Minimum inhibitory concentration (Cryptococcus neoformans; triplicate 3) was 64 µM and the Minimum inhibitory concentration (Erwinia carotovora) was 512 µM. The “Minimum inhibitory concentration, Average” value (Erwinia carotovora) was 512.0 µM, the Minimum inhibitory concentration (Xanthomonas campestris; CLSI M7-A10, triplicate 1) was 512 µM and the “Minimum inhibitory concentration, Average” value (Xanthomonas campestris) was 512.0 µM. The Minimum inhibitory concentration (Xanthomonas campestris; triplicate 2) was 512 µM, the Minimum inhibitory concentration (Xanthomonas campestris; triplicate 3) was 512 µM and the Minimum inhibitory concentration [1] was 512 µM. The “Minimum inhibitory concentration, Average” value [1] was 512.0 µM.
